Here are results for 75 compounds from PubChem BioAssay AID1996.

Each structure is given as a SMILES string. ≈ marks a conversion by molar mass, not a printed value.

For this data set the following is noted: buffer; pH 7.4; 200.0 µM.
Usually solubility (kinetic) stands for the concentration staying in solution when a stock, usually in DMSO, is diluted into the medium. Consider `O=C(O)CCCN1C(=O)/C(=C/c2ccncc2)SC1=S`, for which the solubility (kinetic) is above 46.3 µg/mL.

For `CCOC(=O)C1=C(O)C(=O)N(C2CCCCC2)C1`, the kinetic solubility was above 38 µg/mL.

In turn, `O=C(NCCS(=O)(=O)NCC1CCCO1)c1ccccc1` (stereo not given) had a kinetic solubility above 46.9 µg/mL.

The compound `N#Cc1c(-c2ccccc2)cc(-c2ccccc2)nc1SCCC(=O)O` displayed a kinetic solubility above 54.1 µg/mL.

Regarding `Cl.O=C(OCCN1CCOCC1)c1cccc(F)c1`, the kinetic solubility is above 43.5 µg/mL.

The compound `Cc1cc(-c2onc(C)c2C(=O)O)no1` gave a solubility (kinetic) above 31.2 µg/mL.

In turn, `CS(=O)(=O)c1ccc2nc(NC(=O)Nc3ccccc3F)sc2c1` displayed a solubility (kinetic) of 0.8 µg/mL (≈ 2.19 µM).

The compound `Cc1ccc(C)c(NC(=O)C2COc3ccccc3O2)c1` (stereo not given) gave a solubility (kinetic) of 3.5 µg/mL (≈ 12.4 µM).

The compound `Cc1ccc(C)c(NC(=O)CCN2CCCCC2)c1` gave a kinetic solubility above 39.1 µg/mL.

Regarding `O=[N+]([O-])c1ccc(Sc2cccc3cccnc23)c2cccnc12`, the kinetic solubility is below 0.2 µg/mL.

`CCc1ccccc1NC(=O)CN(C)Cc1c(O)ccc2ccccc12` yielded a solubility (kinetic) of 22.8 µg/mL (≈ 65.4 µM).

`Cc1cccc(C(=O)OCC(=O)NCCCc2ccccc2)c1O` yielded a solubility (kinetic) of 12.3 µg/mL (≈ 37.6 µM).

`CCC(CC)C(=O)NCc1ccc(OC)cc1` registered a kinetic solubility of 32.7 µg/mL (≈ 139 µM).

`Cc1ccc2[nH]cc(/C=C/c3cc[n+](C)cc3)c2c1.[I-]`: the kinetic solubility was above 56.4 µg/mL.

Consider `COc1cccc(C(=O)Nc2ccccc2C(=O)NC2CC2)c1`, for which the solubility (kinetic) was 11.9 µg/mL (≈ 38.3 µM).

`CCOC(=O)c1cc(S(=O)(=O)N2CCCC2)cn1C` had a solubility (kinetic) of 22.4 µg/mL (≈ 78.2 µM). This solubility kinetic is about 1.9-fold higher than that of the compound before.

Turning to `O=C(COc1ccc(F)cc1)Nc1ccc2c(c1)OCCO2`, the kinetic solubility was 7.9 µg/mL (≈ 26 µM). Compared with the last compound, the solubility kinetic is about 2.8-fold lower.

The compound `Cc1c(C)c(C)c(CN2CCSCC2)c(C)c1C` had a kinetic solubility below 0.6 µg/mL.

Compound `Cc1ccc(-n2nc3c(c2NC(=O)C(C)(C)C)CS(=O)(=O)C3)cc1` yielded a kinetic solubility above 52.1 µg/mL.

Compound `Cc1ccc(NC(=S)NC(=O)c2cncc(Br)c2)cc1Cl` registered a solubility (kinetic) of 2.4 µg/mL (≈ 6.24 µM).

`CC(C)CCN1CCN(C/C=C/c2ccco2)CC1CCO` (stereo not given) had a solubility (kinetic) of 45.3 µg/mL (≈ 148 µM).

For the compound `O=C(CCC1CCCN(C(=O)c2ccco2)C1)NCc1ccccc1F` (stereo not given), the kinetic solubility was above 53.8 µg/mL.

Take `COc1cc(C(=S)N2CCOCC2)ccc1OC(=O)c1ccccc1C`: the kinetic solubility was determined as 10.3 µg/mL (≈ 27.7 µM).

`COc1cc(S(=O)(=O)NCc2ccccn2)ccc1Cl` displayed a solubility (kinetic) above 46.9 µg/mL.

For the compound `COc1ccc(-c2oc(=O)n(C)c2-c2ccc(OC)cc2)cc1`, the solubility (kinetic) stood at 17.3 µg/mL (≈ 55.6 µM).

In turn, `O=C(c1ccco1)N1CCN(C(=O)c2ccccc2OCc2ccccc2)CC1` yielded a kinetic solubility above 58.6 µg/mL.

`O=C(Cc1c(F)cccc1Cl)Nc1cc(S(=O)(=O)N2CCOCC2)ccc1N1CCCC1`: the kinetic solubility stood at 2 µg/mL (≈ 4.15 µM).

`COc1cc2c(cc1OC)CN(C(=O)CCOc1ccccc1)CC2` gave a solubility (kinetic) of 30.3 µg/mL (≈ 88.8 µM). This solubility kinetic lies about 15-fold higher than the previous one.

In turn, `CCC(C)NC(=O)CN1C(=O)C(CC)Sc2ccccc21` (stereo not given) came in with a kinetic solubility above 46 µg/mL.

`CCN1C(=O)NC(c2ccc(Cl)cc2)C2=C1CCCC2=O` (stereo not given) registered a solubility (kinetic) of 44.2 µg/mL (≈ 145 µM).

The compound `CN(C)CC1CCCCC1=O.Cl` (stereo not given) registered a kinetic solubility above 28.8 µg/mL.

For `C=CCN1C(=O)C2(OCCCO2)c2cc(Cl)ccc21`, the solubility (kinetic) is 33.7 µg/mL (≈ 120 µM).

As for `CS(=O)(=O)N1CCN(c2ccc(NC(=O)c3ccccc3)cc2)CC1`, the solubility (kinetic) came to 1 µg/mL (≈ 2.78 µM).

Turning to `CC(=O)c1ccc(S(=O)(=O)N(C)C(C)CCc2ccco2)cc1` (stereo not given), the kinetic solubility amounted to 31.8 µg/mL (≈ 94.8 µM). This solubility kinetic is about 32-fold higher than that of the compound before.

In the case of `CC12CCC(C[N+](C)(C)C1)C2(C)C.[I-]` (stereo not given), the solubility (kinetic) is above 46.4 µg/mL.

For `Nc1ncccc1C(=O)OCC(=O)NC1CCCCCC1`, the solubility (kinetic) is 38 µg/mL (≈ 130 µM).

In turn, `COc1cccc(NC(=O)Nc2nc(SC)ns2)c1` showed a solubility (kinetic) of 1.3 µg/mL (≈ 4.39 µM).

`CC(C)(C)c1cc(CCC(=O)NCc2cccnc2)cc(C(C)(C)C)c1O` gave a kinetic solubility of 36.5 µg/mL (≈ 99 µM).

Regarding `COc1ccc(Nc2oc(-c3ccccc3F)nc2C#N)cc1`, the kinetic solubility was below 0.2 µg/mL.

With `NC(=O)CC(NSc1ccccc1[N+](=O)[O-])C(=O)O` (stereo not given), the kinetic solubility turned out to be 36.9 µg/mL (≈ 129 µM).

`Cc1cccc2sc(N(CCN(C)C)C(=O)c3ccc4ccccc4c3)nc12.Cl` displayed a kinetic solubility of 0.4 µg/mL. Against the preceding compound, the solubility kinetic is about 92-fold lower.

On to `CCOC(=O)CNC(=O)c1ccc(SCC)cc1`, for which the kinetic solubility is above 40.1 µg/mL.

`Cn1c(=O)c2c(nc(SCC(=O)N3CCOCC3)n2C)n(C)c1=O` came in with a solubility (kinetic) above 53 µg/mL.

Compound `CC1CC(=O)Nc2ccccc2N1C(=O)CN1C(=O)C(=O)N(C)C1=O` (stereo not given) came in with a solubility (kinetic) above 51.6 µg/mL.

Regarding `CP(=O)(O)CN1CCCCC1`, the solubility (kinetic) was determined as 24.9 µg/mL (≈ 141 µM).

`Cc1cnc(NC(=O)c2cccs2)s1` returned a solubility (kinetic) of 28.1 µg/mL (≈ 125 µM).

Take `COc1ccc(CNC(=O)Cn2cncn2)cc1OC`: the kinetic solubility is above 41.4 µg/mL.

With `O=C(O)c1cccc([N+](=O)[O-])c1C(=O)Nc1ccc2ccccc2c1`, the solubility (kinetic) is 35.4 µg/mL (≈ 105 µM).

`C=CCN1C(=O)C2(OCCCO2)c2ccccc21` showed a solubility (kinetic) of 36.7 µg/mL (≈ 150 µM).

`CN(C)/C(=N\S(=O)(=O)c1ccccc1)c1ccc(Cl)cc1`: the solubility (kinetic) is above 48.4 µg/mL.

The compound `O=C(Nc1ccc(NC(=O)c2ccccc2Cl)nc1)c1ccco1` had a kinetic solubility of 10.2 µg/mL (≈ 29.8 µM).

Take `CN(Cc1ccccc1)C(=O)C1CCN(S(C)(=O)=O)CC1`: the kinetic solubility is above 46.6 µg/mL.

On to `CC(NC(=O)c1ccco1)C(=O)Nc1nccs1` (stereo not given), for which the solubility (kinetic) is above 39.8 µg/mL.

`Cc1cc(NC(=O)COc2ccc(F)c(Cl)c2)no1` yielded a solubility (kinetic) of 4.8 µg/mL (≈ 16.9 µM).

On to `O=c1nc(Nc2ccc([N+](=O)[O-])cc2)[nH]c(=O)[nH]1`, for which the solubility (kinetic) was 26.2 µg/mL (≈ 105 µM).

In the case of `CCn1cc(S(=O)(=O)N2CCCC2)cn1`, the kinetic solubility is above 34.4 µg/mL.

Turning to `O=C(Cc1ccc([N+](=O)[O-])cc1)c1c(O)cc(O)cc1O`, the kinetic solubility is above 43.4 µg/mL.

For `O=C(Nc1nc2cc3c(cc2s1)OCO3)c1ccco1`, the kinetic solubility stood at 1 µg/mL (≈ 3.47 µM).

Regarding `Cc1cc(N2CCN(c3ncccn3)CC2)nc2c(C)cccc12`, the solubility (kinetic) was 0.2 µg/mL (≈ 0.626 µM).

Take `Cn1c(=O)n(Cc2ccccc2Br)c2ccccc21`: the solubility (kinetic) worked out at 7.8 µg/mL (≈ 24.6 µM). Against the preceding compound, the solubility kinetic is about 39-fold higher.

Compound `O/N=C/c1ccc2ccccc2n1` displayed a kinetic solubility above 25.8 µg/mL.

The compound `Cn1c(=O)c(=O)n(C)c2cc([N+](=O)[O-])c([N+](=O)[O-])cc21` registered a kinetic solubility above 42 µg/mL.

Take `O=C(O)c1cc(-c2ccccc2Cl)n(-c2ccccc2)n1`: the kinetic solubility is above 44.8 µg/mL.

In the case of `Cc1cc(C)c(C)c(S(=O)(=O)N[C@@H](C)C(=O)OCC(=O)NC2CCCC(C)C2C)c1C` (stereo not given in full), the kinetic solubility was found to be 27.8 µg/mL (≈ 61.4 µM).

With `O=C(O)c1nccnc1C(=O)Nc1ccc(Cl)cn1`, the kinetic solubility turned out to be 41.5 µg/mL (≈ 149 µM).

With `Cc1nc2ccc(NC(=S)N3CCCC3)cc2nc1C`, the kinetic solubility was 41.7 µg/mL (≈ 146 µM).

`O=CN1CCN(S(=O)(=O)c2ccc(Cl)c(C(=O)O)c2)CC1`: the solubility (kinetic) was above 49.9 µg/mL.

As for `CC(C)COP(=O)(c1ccc(N(C)C)cc1)C(O)c1ccccc1` (stereo not given), the kinetic solubility was above 52.1 µg/mL.

Regarding `CC1CN(C(=S)Nc2ccc(F)cc2F)CC(C)O1` (stereo not given), the solubility (kinetic) is above 43 µg/mL.

`Cc1ccc(Nc2c3c(nc4ccccc24)CCC3)cc1.Cl` yielded a kinetic solubility of 33.4 µg/mL.

For the compound `c1ccc(SCc2nc3ccccc3s2)nc1`, the solubility (kinetic) was 17.8 µg/mL (≈ 68.9 µM).

Regarding `COc1ccccc1C(=O)NCCC(=O)NCCOc1ccccc1`, the kinetic solubility is above 51.4 µg/mL.

`O=C(Cc1ncc(C(F)(F)F)cc1Cl)NCc1cccnc1` gave a solubility (kinetic) above 49.5 µg/mL.

The compound `Cc1oc(S(=O)(=O)N2CCOCC2)cc1C(=O)Nc1ccc(F)cc1` returned a solubility (kinetic) of 5.4 µg/mL (≈ 14.7 µM).

For `COc1ccc(OC)c(/C=N/NC(=O)C(O)c2ccccc2)c1` (stereo not given), the kinetic solubility was above 47.2 µg/mL.
